Test results: paper PMC4336144, “Screening the Medicines for Malaria Venture "Malaria Box" against the Plasmodium falciparum Aminopeptidases, M1, M17 and M18” (PLoS ONE, 2015)
Where two headings read alike, the source gives them in different places.

Legend:
PfA-M1 [1] = target: T1, PfA-M1 (Plasmodium falciparum, UniProt O96935); test: Secondary screening against individual enzyme; type: biochemical; conditions: 100 μM compound; for PfA-M1 activity, single dose secondary screen: n = 1; for PfA-M1 activity retained in the presence of compound: n = 3, of total enzyme activity
T1 construct: made in house; host or cells: Escherichia coli
T1 sequence (O96935 195-1085 limits assumed): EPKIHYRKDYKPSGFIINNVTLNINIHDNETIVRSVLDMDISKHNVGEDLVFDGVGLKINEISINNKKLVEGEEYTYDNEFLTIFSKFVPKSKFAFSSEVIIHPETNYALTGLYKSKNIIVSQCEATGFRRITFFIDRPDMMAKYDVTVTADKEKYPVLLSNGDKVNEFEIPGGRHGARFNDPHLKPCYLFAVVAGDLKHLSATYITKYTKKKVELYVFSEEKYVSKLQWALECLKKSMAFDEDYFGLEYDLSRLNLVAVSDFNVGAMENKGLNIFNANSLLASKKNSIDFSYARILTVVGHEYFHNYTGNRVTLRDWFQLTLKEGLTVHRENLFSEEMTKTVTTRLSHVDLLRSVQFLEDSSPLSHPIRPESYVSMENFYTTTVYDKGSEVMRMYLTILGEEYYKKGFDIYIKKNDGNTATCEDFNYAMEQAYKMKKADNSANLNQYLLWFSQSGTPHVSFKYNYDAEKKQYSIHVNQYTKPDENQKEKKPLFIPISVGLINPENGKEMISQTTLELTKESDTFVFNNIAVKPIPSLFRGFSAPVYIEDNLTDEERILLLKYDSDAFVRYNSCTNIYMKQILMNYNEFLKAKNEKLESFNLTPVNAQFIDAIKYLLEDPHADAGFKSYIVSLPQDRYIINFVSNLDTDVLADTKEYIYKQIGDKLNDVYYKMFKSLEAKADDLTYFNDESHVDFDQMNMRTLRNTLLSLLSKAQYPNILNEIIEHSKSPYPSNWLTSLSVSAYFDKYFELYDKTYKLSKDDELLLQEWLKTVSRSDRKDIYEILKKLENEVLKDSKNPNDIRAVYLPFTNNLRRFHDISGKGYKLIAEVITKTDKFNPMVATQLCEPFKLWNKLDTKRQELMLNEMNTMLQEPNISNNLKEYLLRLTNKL
Procedure: (§1) Aminopeptidase activity of each individual enzyme in the presence of a single MMV compound (100 μM) was determined using Leu-Mec for both PfA-M1 (15 nM) and PfA-M17 (80 nM) or Glu-pNA for PfM18AAP (125 nM). Reactions were carried out in 96-well microtitre plates (200 μl total volume) in 50 mM Tris-HCl pH 8.0, 2 mM CoCl2 at 37°C. Following a 10 min incubation (enzyme and compound) at 37°C, reactions were initiated by addition of enzyme specific substrate. Progress curves were monitored using a FLUOstar Omega multimode reader (BMG LabTech) for 1.5 h at 37°C. As activity references, individual enzyme 'no compound' controls and 'positive inhibitor' controls were included in each 96 well plate assay. We applied a cut-off of < 10% activity in the presence of 100 μM compound for selection to the next phase. Compounds that were selected to proceed were then used in further assays to obtain n = 3.

PfA-M17 [2] = target: T2, PfA-M17 (Plasmodium falciparum, UniProt Q8IL11); test: Secondary screening against individual enzyme; type: biochemical; conditions: 100 μM compound; for PfA-M17 activity, single dose secondary screen: n = 1
T2 construct: made in house; host or cells: Escherichia coli
T2 sequence (Q8IL11 84-605 limits assumed): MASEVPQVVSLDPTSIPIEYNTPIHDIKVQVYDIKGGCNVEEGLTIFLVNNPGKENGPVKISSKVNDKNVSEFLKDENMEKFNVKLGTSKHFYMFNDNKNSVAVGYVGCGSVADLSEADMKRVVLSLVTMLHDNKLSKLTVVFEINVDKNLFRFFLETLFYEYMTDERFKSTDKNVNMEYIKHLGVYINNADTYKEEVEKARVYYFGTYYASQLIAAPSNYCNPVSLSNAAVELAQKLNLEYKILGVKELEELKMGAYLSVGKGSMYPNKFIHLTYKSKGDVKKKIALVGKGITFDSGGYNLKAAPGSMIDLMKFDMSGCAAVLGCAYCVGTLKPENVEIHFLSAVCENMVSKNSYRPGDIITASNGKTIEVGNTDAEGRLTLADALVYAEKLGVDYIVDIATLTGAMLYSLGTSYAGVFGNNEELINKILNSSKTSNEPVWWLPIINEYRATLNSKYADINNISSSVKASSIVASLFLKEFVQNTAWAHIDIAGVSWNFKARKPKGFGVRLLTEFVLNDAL
Procedure: as §1

PfA-M17 [3] = target: T2, PfA-M17; test: Determination of Ki values (Dixon plots, H-Leu-NHMec); type: biochemical; conditions: for Ki: Dixon plot
Procedure: (§2) MMV020750 was purchased from InterBioScreen (catalog number STOCK2S-51608) and MMV666023 was purchased from ChemBridge (catalog number 5566248). The MMV020750 derivatives 1, 2 and 3 were purchased from Ambinter (catalog numbers AMB425981, AMB2311364 and AMB8506251 respectively). 4-(4,5-Diphenyl-1H-imidazol-2-yl)benzoic acid (4) was purchased from TCI Chemicals, while 4-(4,5-diphenyl-1H-imidazol-2-yl)-N-hydroxybenzamide (5) was prepared from 4 as described (S1 Methods). Aminopeptidase activity of both PfA-M1 and PfA-M17 enzymes was determined by measuring the release of the fluorogenic leaving group, NHMec, from the fluorogenic peptide L-Leucine-7-amido-4-methylcoumarin hydrochloride (H-Leu-NHMec) (Sigma L2145). The assay protocol devised by Stack CM, et al, (J. Biol Chem, 2007) was modified and used, with the reactions were carried out at 37°C and monitored using a spectrofluorometer (BMG FLUOstar) with excitation at 355 nm and emission at 460 nm. Each enzyme was pre-incubated in 50 mM Tris pH 8.0, 2 mM CoCl2; 5% DMSO with each inhibitor for 10 min prior to the addition of substrate. Inhibitor concentration was assayed between 0 and 500 μM final for each compound, and repeated over a narrowed range if necessary. The fluorescence signal was monitored until a final steady state velocity, V, was obtained. The K i values were then evaluated using Dixon plots of 1/V versus inhibitor concentration while the substrate concentration was maintained lower than that of the Km of the enzyme.
This was a particular problem with the PfA-M17 enzyme assays where we noted that at higher concentrations of 4, a decrease in fluorescence was observed. We hypothesise that this is a result of PfA-M17 binding to the compound and quenching the intrinsic fluorescence. […] We therefore chose to analyse a reduced concentration range for 4.

[4] = test system: asexual blood stage of 3D7 Pf; conditions: cited from earlier work
PfA-M1 and/or PfA-M17 = test: Multiplex primary screen, fluorogenic substrate Leu-Mec; type: biochemical, Plasmodium falciparum; conditions: 100 μM compound, multiplex assay
Procedure: A multiplex enzyme assay was developed to complete the primary screen of 400 compounds that were provided to us by MMV and SCYNEXIS. Combined PfMAP (15 nM PfA-M1; 80 nM PfA-M17 and 125 nM PfM18AAP) aminopeptidase activity in the presence of a single MMV compound (100 μM solubilized in 100% dimethyl sulfoxide, DMSO, final DMSO concentration in assay = 10%) was determined by simultaneous measurement of the release of the fluorogenic leaving group, -NHMec, from L-Leucine-7-amido-4-methylcoumarin-HCl (Leu-Mec) (Sigma) as well as the hydrolysis of p-nitroanilide from the chromogenic substrate, L-Glutamic acid p-nitroanilide (Glu-pNA) (Sigma). The fluorogenic substrate records the combined activity of PfA-M1 and PfA-M17 while the p-nitroanilide substrate is specific for PfM18AAP. Reactions were carried out in 96-well microtitre plates (200 μL total volume) in 50 mM Tris-HCl pH 8.0, 2 mM CoCl2 at 37°C. Following a 10 min incubation (multi-enzyme and single compound) at 37°C, reactions were initiated by addition of both fluorogenic and chromagenic substrates. Progress curves were monitored using a FLUOstar Omega multimode reader (BMG LabTech) for 1.5 h at 37°C. As activity references, individual enzyme and multiple enzyme 'no compound' controls and 'positive inhibitor' controls (with 10% DMSO) were included in each 96 well plate assay.

PfA-M1 [5] = target: T1, PfA-M1; test: Determination of Ki values (Dixon plots, H-Leu-NHMec); type: biochemical
Procedure: as §2

[6] = ref Avery, read-out: EC50 (Avery)
[7] = ref ChEMBL, read-out: EC50 (ChEMBL)
[8] = Dixon plot, read-out: Ki PfA-M1

| SMILES | reduction of PfA-M1 activity (PfA-M1 [1]; n = 3) [%] | reduction of PfA-M17 activity (PfA-M17 [2]; n = 3) [%] | mode of inhibition of PfA-M17 (PfA-M17 [3]) | Ki (PfA-M17 [3]) [µM] | % Pf Inhibition @ 5 μM [4] [%] | EC50 [4, 6] [µM] | EC50 [4, 7] [µM] | Activity (PfA-M1 and/or PfA-M17) (PfA-M1 and/or PfA-M17) | mode of inhibition of PfA-M1 (PfA-M1 [5]) | Ki (PfA-M1 [5]; [8]) [µM] | selectivity for PfA-M1 over M17 (PfA-M1 [5]; from Ki values) [fold] | PfA-M1 activity, single dose secondary screen (PfA-M1 [1]) | PfA-M17 activity, single dose secondary screen (PfA-M17 [2]) | PfA-M1 activity retained in the presence of compound (PfA-M1 [1]) | selectivity for PfA-M17 over M1 (PfA-M17 [3]; from Ki values) [fold] | Ki (PfA-M1 [5]; Dixon plot including the 500 uM values, read-out: Ki (with all values) PfA-M1) [µM] | PfA-M17 activity retained in the presence of compound (PfA-M17 [2]; n = 3) |
| --- | --- | --- | --- | --- | --- | --- | --- | --- | --- | --- | --- | --- | --- | --- | --- | --- | --- |
| c1ccc(Cn2c(/N=N/c3c(Nc4ccccc4)ccc4ccccc34)nc3ccccc32)cc1 [MMV666023] | 95 | 70 | competitive | 23 | 96 | 0.04 | 2.7 | R | competitive | 4.5 | 5 |  |  |  |  |  |  |
| O=C(Nc1ccc(-c2nc3ccccc3[nH]2)cc1)c1ccc(Cl)c(Cl)c1 [MMV665840] |  |  |  |  |  |  |  | R |  |  |  | false positive | false positive |  |  |  |  |
| COc1cc(-c2nc(-c3ccccc3)c(-c3ccccc3)[nH]2)cc(OC)c1O [MMV020750] |  | 95 | competitive | 12 | 97 | 1.2 | 0.8 | R | competitive | 75 |  |  |  | 75% | 6 | 225 |  |
| CC(C)C[C@H](NC(=O)[C@@H](O)[C@H](N)Cc1ccccc1)C(=O)O [Bestatin, reference compound] |  |  |  |  |  |  |  |  |  |  |  | no neutral aminopeptidase activity is detectable | no neutral aminopeptidase activity is detectable | no neutral aminopeptidase activity is detectable |  |  | no neutral aminopeptidase activity is detectable |
